The target in the test is T1, human histamine H3 receptor (Homo sapiens, UniProt Q9Y5N1).
T1 construct: expressed in transfected cells; host or cells: CHO K1 cells carrying pSwitch, transfected with pGeneH3 and induced with mifepristone; membranes of clone 3H3
The experiment in a line: Histamine H3 functional antagonist assay. It counts as biochemical. The procedure:
A membrane preparation containing histamine H3 receptors may be prepared in accordance with the following procedures:
Ligated DNA was transformed into competent DH5α E. coli host bacterial cells and plated onto Luria Broth (LB) agar containing Zeocin™ (an antibiotic which allows the selection of cells expressing the sh ble gene which is present on pGene and pSwitch) at 50 μg ml^−1. Colonies containing the re-ligated plasmid were identified by restriction analysis. DNA for transfection into mammalian cells was prepared from 250 ml cultures of the host bacterium containing the pGeneH3 plasmid and isolated using a DNA preparation kit (Qiagen Midi-Prep) as per manufacturers guidelines (Qiagen).
CHO K1 cells previously transfected with the pSwitch regulatory plasmid (InVitrogen) were seeded at 2×10e6 cells per T75 flask in Complete Medium, containing Hams F12 (GIBCOBRL, Life Technologies) medium supplemented with 10% v/v dialysed foetal bovine serum, L-glutamine, and hygromycin (100 μg ml^−1), 24 hours prior to use. Plasmid DNA was transfected into the cells using Lipofectamine plus according to the manufacturers guidelines (InVitrogen). 48 hours post transfection cells were placed into complete medium supplemented with 500 μg ml^−1 Zeocin™.
10-14 days post selection 10 nM Mifepristone (InVitrogen), was added to the culture medium to induce the expression of the receptor. […] Approximately 1×10e7 cells were examined for receptor expression by staining with a rabbit polyclonal antibody, 4a, raised against the N-terminal domain of the histamine H3 receptor, incubated on ice for 60 minutes, followed by two washes in sorting medium. […] Following two further washes with Sorting Medium, cells were filtered through a 50 μm Filcon™ (BD Biosciences) and then analysed on a FACS Vantage SE Flow Cytometer fitted with an Automatic Cell Deposition Unit. […] Positively stained cells were sorted as single cells into 96-well plates, containing Complete Medium containing 500 μg ml^−1 Zeocin™ and allowed to expand before reanalysis for receptor expression via antibody and ligand binding studies.
All steps of the protocol are carried out at 4° C. and with pre-cooled reagents. […] The cells are then homogenised by 2×15 second bursts in a 1 litre glass Waring blender, followed by centrifugation at 500 g for 20 minutes. The supernatant is then spun at 48,000 g for 30 minutes. […]
The plate is then incubated on a shaker at room temperature for 30 minutes followed by centrifugation for 5 minutes at 1500 rpm. The plate is read between 3 and 6 hours after completion of centrifuge run in a Wallac Microbeta counter on a 1 minute normalised tritium count protocol. Data is analysed using a 4-parameter logistic equation. […]

Where [1] appears, read: membranes of CHO K1 cells expressing human histamine H3, [35S]GTPγS SPA, histamine 0.3 μM, read-out: antagonism (pKb) (converted).

The structures appear in SMILES notation. Several values for one entry are separate records, joined by “and”; a condition that tells them apart may be missing. Identical values can stand only once. Like-named read-outs stand apart in the source and are kept apart here.

T1 sequence (Q9Y5N1 whole entry): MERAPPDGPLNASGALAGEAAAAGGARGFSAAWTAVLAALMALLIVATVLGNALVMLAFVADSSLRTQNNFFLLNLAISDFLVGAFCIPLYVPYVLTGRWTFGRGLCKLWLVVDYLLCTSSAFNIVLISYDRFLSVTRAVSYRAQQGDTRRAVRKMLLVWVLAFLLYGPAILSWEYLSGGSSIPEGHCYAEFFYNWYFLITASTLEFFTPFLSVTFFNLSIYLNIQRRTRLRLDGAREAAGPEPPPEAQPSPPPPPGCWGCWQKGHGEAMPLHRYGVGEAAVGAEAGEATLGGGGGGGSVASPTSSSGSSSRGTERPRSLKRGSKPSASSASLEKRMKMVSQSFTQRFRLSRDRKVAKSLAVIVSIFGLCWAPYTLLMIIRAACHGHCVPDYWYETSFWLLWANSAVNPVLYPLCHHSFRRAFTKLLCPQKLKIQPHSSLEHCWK

Consider `O=C(N1CCOCC1)N1CCC(Oc2ccc3c(c2)CCN(C2CCC2)CC3)CC1` [Example 52], for which the Kb under setting [1] is 0.0316 to 1 nM.

The compound `c1ccc(COc2ccc3c(c2)CCN(C2CCC2)CC3)cc1` [Example 1, 7-Benzyloxy-3-cyclobutyl-2,3,4,5-tetrahydro-1H-benzo[d]azepine] came in with a Kb of 0.0316 to 1 nM.

In the case of `O=C1CCCN1c1ccc(Oc2ccc3c(c2)CCN(C2CCC2)CC3)nc1` [Example 217, 1-{6-[(3-Cyclobutyl-2,3,4,5-tetrahydro-1H-3-benzazepin-7-yl)oxy]-3-pyridinyl}-2-pyrrolidinone], the Kb under setting [1] was 0.0316 to 1 nM.

As to `CNC(=O)c1ccc(Oc2ccc3c(c2)CCN(C2CCC2)CC3)nc1` [Example 121, 6-(3-Cyclobutyl-2,3,4,5-tetrahydro-1H-benzo[d]azepin-7-yloxy)-N-methyl-nicotinamide], the Kb under setting [1] was 0.0316 to 1 nM and < 0.316 nM.

(Values after patent US7704994B2, “Benzazepine derivatives for the treatment of neurological disorders” (Glaxo Group Limited, priority 2002, dated 2010).)
